In ChEMBL document CHEMBL1142097, “EthA, a common activator of thiocarbamide-containing drugs acting on different mycobacterial targets” (Antimicrob Agents Chemother, 2007):
Active and inactive are the calls of the source. The calls are words filed in the database; no cut-off is given here.

System: Mycobacterium tuberculosis
Test: Antimycobacterial activity against Mycobacterium tuberculosis H37Rv
Format: functional, organism-based

COc1ccc(/C(C)=N/NC(N)=S)cc1
Activity: Active
